The values that follow come from patent publication US20110162097A1, “NUCLEOTIDE SEQUENCE ENCODING AN ALCOHOL DEHYDROGENASE FROM ARTEMISIA ANNUA AND USES THEREOF” (priority 2008, published 2011).

Structures are written as SMILES.

The test system of one assay is Plasmodium falciparum. To be noted: reported to be more active than artesunate; cited from earlier work.
For assay [1], the target named is T1, ADH1 (Artemisia annua alcohol dehydrogenase) (Artemisia annua, UniProt A0A2U1Q018, G20S/L19S/V78I).
T1 construct: 6xHis (N-terminal tag and attB linker encoded by pDEST17); made in house; host or cells: E. coli Rosetta (DE3)
T1 sequence (A0A2U1Q018 whole entry L19S/G20S/V78I): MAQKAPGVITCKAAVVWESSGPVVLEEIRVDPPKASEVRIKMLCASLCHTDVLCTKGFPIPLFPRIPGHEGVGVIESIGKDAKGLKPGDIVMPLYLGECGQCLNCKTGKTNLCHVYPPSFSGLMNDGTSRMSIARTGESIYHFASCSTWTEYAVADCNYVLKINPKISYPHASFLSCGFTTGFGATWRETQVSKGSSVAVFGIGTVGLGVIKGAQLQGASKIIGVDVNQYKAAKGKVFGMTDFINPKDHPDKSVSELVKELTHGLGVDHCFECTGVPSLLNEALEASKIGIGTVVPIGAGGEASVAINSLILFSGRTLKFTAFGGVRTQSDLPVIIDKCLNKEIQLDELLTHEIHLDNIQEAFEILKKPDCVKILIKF
Put plainly: Specific ADH1 activity enzyme assay (crude protein from E. coli, NAD+, GC/MS analysis). To be noted: 1 mM NAD+, 0.1 μg/μl substrate, approximately 90 μg crude protein, 30° C., 30 minutes. Type of assay: biochemical. The procedure:
The Gateway vector pDEST17 had the Adh1 gene inserted and was subsequently transformed into a competent expression E. coli strain Rosetta (DE3). These cells were grown overnight in 3 ml of LB broth amended with 100 μg/ml ampicillin. An aliquot of 1 ml overnight culture was sub cultured to 100 ml of fresh LB broth also amended with 100 μg/ml of ampicillin. The culture was incubated at 37° C. until the optical density reached 0.8 at 600 nm. A final concentration of 1 mM IPTG was then added to the culture and the flask was incubated at 30° C. for another 4 hours. Cells were harvested by centrifugation at 10,000 rcf for 10 minutes. Pelleted cells were resuspended in 20 mM sodium phosphate pH 7.4 and 500 mM NaCl. Cell walls were disrupted by sonication on ice at intervals of 0.7 seconds for 1 minute, followed by a 1 minute cool down this was repeated three times. The sonicated cells were centrifuged at 10,000 rcf for 10 minutes; the supernatant which contained the soluble ADH1 was concentrated and desalted by spin dialysis (using Amicon Ultra-15 devices; Millipore, Mass.), and stored in a new tube at 4° C. This method of recombination and expression was also used for a control plasmid pDEST17-gus.
Enzyme assay was prepared to determine the specific activity of ADH1. […]

`C[C@H]1[C@H](N2CCS(=O)(=O)CC2)O[C@@H]2O[C@@]3(C)CC[C@H]4[C@H](C)CC[C@@H]1[C@@]24OO3` [Artemisone]: the “activity relative to artesunate” value in the assay on Plasmodium falciparum is on record as 10-30 fold.
On to `C=C(CO)[C@@H]1CC[C@@H](C)[C@@H]2CCC(C)=C[C@@H]21` [artemisinic alcohol], for which, in assay [1], the “oxidation of substrate by ADH1 (product observed by GC/MS)” value is “presence of product artemisinic aldehyde”.
Still for that read-out and setting: for `CC1=C[C@H]2[C@@H](CC1)[C@H](C)CC[C@H]2[C@@H](C)CO` [dihydroartemisinic alcohol, (11R)-dihydroartemisinic alcohol] the value was “no observed product”.
